Results published in patent publication US10618903B2, “Heteroaryl substituted aminopyridine compounds” (BRISTOL-MYERS SQUIBB COMPANY, priority 2015, dated 2020).

Assays:
[1] = target: IRAK4 (Homo sapiens (Human), UniProt Q9NWZ3); assay: IRAK4 Inhibition Assay; type: biochemical; details: ATP 500 μM; IRAK4 0.6 nM
Procedure, shortened: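 Readout: electrophoretic (LabChip) separation of fluorescent peptide substrate from phosphorylated product after EDTA quench. Reactions ran 60 min at room temperature with 0.6 nM IRAK4, 1.5 μM peptide and 500 μM ATP; inhibition referenced to no-enzyme (100%) and vehicle (0%) controls.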

[2] = Caco Permeability Assay; type: in vitro ADME; details: human, Caco-2, Caco-2 cells, 3 μM compound
Experimental: Thirteen to 27 days prior to assay, Caco-2 cells were seeded onto collagen-coated polycarbonate filter membranes in 24-well transwell plates at a density of 1.45×10^5 cells/cm^2, approximately 4.8×10^4 cells per well. The cells were grown in a culture medium consisting of DMEM supplemented with 10% fetal bovine serum, 10 mM HEPES, 1% nonessential amino acids, 2 mM L-glutamine, 100 U/mL penicillin-G, and 100 μg/mL streptomycin. The culture medium was replaced every 3 days and the cells were maintained at 37° C. in a 95% relative humidity and 5% CO2 atmosphere. The cells were evaluated for tight junction formation just prior to assay. The test compound was solubilized to 10 mM in 100% DMSO and diluted to 3 μM in assay buffer. Permeability studies were initiated by adding 200 μL assay buffer plus/minus compound to the apical transwell compartment and 600 μL assay buffer plus/minus compound to the basolateral compartment of the 24-well transwell low-binding cluster plate. For apical-to-basolateral (A to B) permeability (absorptive direction), buffer containing compound was placed in the apical compartment (donor wells), while buffer alone was placed in the corresponding basolateral compartments (receiver wells). For basolateral-to-apical (B to A) permeability (secretive direction), buffer containing compound was placed in the basolateral compartment (donor wells), while buffer alone was placed in the corresponding apical compartments (receiver wells). Transwells were then incubated for 2 hours at 37° C. in a 95% relative humidity and 5% CO2 atmosphere with gentle agitation. Following incubation, 100 μL was removed from each apical and basolateral compartment and transferred to 96-well low binding plates that had been previously loaded with 100 µL/well of acetonitrile containing 250 nM propranolol, 250 nM diclofenac, and 500 nM tolbutamide as internal standards. The samples were subsequently analyzed by LC-MS/MS to determine concentrations of compound.

[3] = tested on: IL-6 levels in human whole blood stimulated with a TLR2 agonist; assay: IRAK4 Whole Blood Assay (lipoteichoic acid/TLR2-stimulated IL-6); type: cell-based; details: lipoteichoic acid 10 μg/mL, IL-6 readout
Procedure, shortened: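 IL-6 was quantified by cytometric bead assay in supernatants of human blood (ACD-A) stimulated for 5 h with lipoteichoic acid at 10 μg/mL final. Compound exposure preceded stimulation for 60 min at 37 °C, 5% CO2.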

Chain of IRAK4 (Q9NWZ3 whole entry): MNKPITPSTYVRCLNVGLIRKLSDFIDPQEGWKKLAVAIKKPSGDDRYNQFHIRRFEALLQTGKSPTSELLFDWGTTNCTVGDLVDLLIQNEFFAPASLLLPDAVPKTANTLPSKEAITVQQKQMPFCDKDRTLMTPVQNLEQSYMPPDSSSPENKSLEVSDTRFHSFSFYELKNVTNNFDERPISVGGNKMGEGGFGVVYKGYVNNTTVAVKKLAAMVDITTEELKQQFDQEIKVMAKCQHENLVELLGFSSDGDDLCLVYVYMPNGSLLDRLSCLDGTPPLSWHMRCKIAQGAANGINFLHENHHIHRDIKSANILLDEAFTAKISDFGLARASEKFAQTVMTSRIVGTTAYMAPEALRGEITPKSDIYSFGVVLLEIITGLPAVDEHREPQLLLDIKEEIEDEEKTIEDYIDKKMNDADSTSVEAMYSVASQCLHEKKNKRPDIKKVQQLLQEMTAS

Row | SMILES | IC50 [1] | Papp at 2 h, 3 µM [2] | EC50 ([3]; Homo sapiens) | EC50 [3]
1 | CC(C)Nc1cc(-c2cnn3cc(C#N)cnc23)ncc1C(=O)N[C@H]1CC[C@H](C(C)(C)O)CC1 [Example 104, 6-(6-cyanopyrazolo[1,5-a]pyrimidin-3-yl)-N-((1r,4r)-4-(2-hydroxypropan-2-yl)cyclohexyl)-4-(isopropylamino)nicotinamide] | 0.007 µM | 16.2 ×10⁻⁶ cm/s | 0.8 µM | 
2 | CNC(=O)c1ccc(Nc2cc(-c3cnn4cc(C#N)cnc34)ncc2C(=O)NC[C@@H](F)C(C)(C)O)cc1 [Example 110, (R)-6-(6-cyanopyrazolo[1,5-a]pyrimidin-3-yl)-N-(2-fluoro-3-hydroxy-3-methylbutyl)-4-((4-(methylcarbamoyl)phenyl)amino) nicotinamide] | 0.003 µM | < 1.5 ×10⁻⁶ cm/s | 0.27 µM | 
3 | COc1cnc(N2CC[C@@H](Nc3cc(-c4cnn5cc(C#N)cnc45)ncc3C(=O)NC[C@@H](F)C(C)(C)O)C2)nc1 [Example 115, 6-(6-cyanopyrazolo[1,5-a]pyrimidin-3-yl)-N—((R)-2-fluoro-3-hydroxy-3-methylbutyl)-4-(((R)-1-(5-methoxypyrimidin-2-yl)pyrrolidin-3-yl)amino)nicotinamide] | 0.006 µM | < 1.5 ×10⁻⁶ cm/s | 2.03 µM | 
4 | CC(C)(O)[C@H](F)CNC(=O)c1cnc(-c2cnc3cc(Cl)cnn23)cc1NC1COC1 [Example 141, (R)-6-(7-chloroimidazo[1,2-b]pyridazin-3-yl)-N-(2-fluoro-3-hydroxy-3-methylbutyl)-4-(oxetan-3-ylamino)nicotinamide] | 0.004 µM | 5.2 ×10⁻⁶ cm/s | 0.49 µM | 
5 | CC(C)Nc1cc(-c2cnc3cc(Cl)cnn23)ncc1C(=O)NC[C@@H](F)C(C)(C)O [Example 142, (R)-6-(7-chloroimidazo[1,2-b]pyridazin-3-yl)-N-(2-fluoro-3-hydroxy-3-methylbutyl)-4-(isopropylamino)nicotinamide] | 0.003 µM | 19 ×10⁻⁶ cm/s | 0.1 µM | 
6 | CC(C)(O)[C@H](F)CNC(=O)c1cnc(-c2cnc3cc(Cl)cnn23)cc1NC1CCOCC1 [Example 143, (R)-6-(7-chloroimidazo[1,2-b]pyridazin-3-yl)-N-(2-fluoro-3-hydroxy-3-methylbutyl)-4-((tetrahydro-2H-pyran-4-yl)amino)nicotinamide] | 0.002 µM | 8.2 ×10⁻⁶ cm/s | 1.08 µM | 
7 | CC(C)(O)[C@H](F)CNC(=O)c1cnc(-c2cnc3cc(Cl)cnn23)cc1NC1CC1 [Example 144, (R)-6-(7-chloroimidazo[1,2-b]pyridazin-3-yl)-4-(cyclopropylamino)-N-(2-fluoro-3-hydroxy-3-methylbutyl)nicotinamide] | 0.003 µM | 13.4 ×10⁻⁶ cm/s | 0.23 µM | 
8 | CC(C)Nc1cc(-c2cnc3cc(C#N)cnn23)ncc1C(=O)NC[C@@H](F)C(C)(C)O [Example 145, (R)-6-(7-cyanoimidazo[1,2-b]pyridazin-3-yl)-N-(2-fluoro-3-hydroxy-3-methylbutyl)-4-(isopropylamino)nicotinamide] | 0.002 µM | 12.3 ×10⁻⁶ cm/s | 0.24 µM | 
9 | CC(C)(O)[C@H](F)CNC(=O)c1cnc(-c2cnc3cc(C#N)cnn23)cc1NC1CCOCC1 [Example 146, (R)-6-(7-cyanoimidazo[1,2-b]pyridazin-3-yl)-N-(2-fluoro-3-hydroxy-3-methylbutyl)-4-((tetrahydro-2H-pyran-4-yl)amino)nicotinamide] | 0.002 µM | < 1.5 ×10⁻⁶ cm/s | 0.15 µM | 
10 | CC(C)(O)[C@H](F)CNC(=O)c1cnc(-c2cnc3cc(C#N)cnn23)cc1NC1COC1 [Example 147, (R)-6-(7-cyanoimidazo[1,2-b]pyridazin-3-yl)-N-(2-fluoro-3-hydroxy-3-methylbutyl)-4-(oxetan-3-ylamino) nicotinamide] | 0.003 µM | < 1.5 ×10⁻⁶ cm/s | 0.09 µM | 
11 | Cc1cnn2c(-c3cc(NC(C)C)c(C(=O)NC[C@@H](F)C(C)(C)O)cn3)cnc2c1 [Example 148, (R)—N-(2-fluoro-3-hydroxy-3-methylbutyl)-4-(isopropylamino)-6-(7-methylimidazo[1,2-b]pyridazin-3-yl)nicotinamide] | 0.007 µM | 8.9 ×10⁻⁶ cm/s | 0.35 µM | 
12 | CC(C)(O)[C@H](F)CNC(=O)c1cnc(-c2cnn3cc(Cl)cnc23)cc1NCCC(F)(F)F [Example 161, (R)-6-(6-chloropyrazolo[1,5-a]pyrimidin-3-yl)-N-(2-fluoro-3-hydroxy-3-methylbutyl)-4-((3,3,3-trifluoropropyl)amino)nicotinamide] | 0.006 µM | 15.3 ×10⁻⁶ cm/s |  | 0.61 µM

Continued, values first:

Row | IC50 [1] | Papp at 2 h, 3 µM [2] | EC50 ([3]; Homo sapiens) | EC50 [3] | SMILES
13 | 0.006 µM | 7.2 ×10⁻⁶ cm/s | 1.66 µM |  | CCNc1cc(-c2cnn3cc(C#N)cnc23)ncc1C(=O)NC[C@@H](F)C(C)(C)O [Example 93, (R)-6-(6-cyanopyrazolo[1,5-a]pyrimidin-3-yl)-4-(ethylamino)-N-(2-fluoro-3-hydroxy-3-methylbutyl)nicotinamide]
14 | 0.004 µM | 8 ×10⁻⁶ cm/s | 1.6 µM |  | CC[C@@H](C)Nc1cc(-c2cnn3cc(C#N)cnc23)ncc1C(=O)NC[C@@H](F)C(C)(C)O [Example 97, 4-(((R)-sec-butyl)amino)-6-(6-cyanopyrazolo[1,5-a]pyrimidin-3-yl)-N—((R)-2-fluoro-3-hydroxy-3-methylbutyl)nicotinamide]
15 | 0.007 µM | 8.6 ×10⁻⁶ cm/s | 0.24 µM |  | CC(C)(O)[C@H](F)CNC(=O)c1cnc(-c2cnn3cc(C#N)cnc23)cc1N[C@@H]1CCC[C@@H]1F [Example 105, 6-(6-cyanopyrazolo[1,5-a]pyrimidin-3-yl)-N—((R)-2-fluoro-3-hydroxy-3-methylbutyl)-4-(((1R,2S)-2-fluorocyclopentyl)amino) nicotinamide]
16 | 0.004 µM | 7 ×10⁻⁶ cm/s | 1.03 µM |  | CC(CCF)Nc1cc(-c2cnn3cc(C#N)cnc23)ncc1C(=O)NC[C@@H](F)C(C)(C)O (stereo partly drawn) [Example 106, 6-(6-cyanopyrazolo[1,5-a]pyrimidin-3-yl)-N—((R)-2-fluoro-3-hydroxy-3-methylbutyl)-4-((4-fluorobutan-2-yl)amino)nicotinamide]
17 | 0.017 µM | 22.1 ×10⁻⁶ cm/s | 1.89 µM |  | CC(C)Nc1cc(-c2cnn3cc(F)cnc23)ncc1C(=O)NC[C@@H](F)C(C)(C)O [Example 130, (R)—N-(2-fluoro-3-hydroxy-3-methylbutyl)-6-(6-fluoropyrazolo[1,5-a]pyrimidin-3-yl)-4-(isopropylamino)nicotinamide]
18 | 0.005 µM | 14.8 ×10⁻⁶ cm/s | 0.87 µM |  | CC[C@H](F)CNc1cc(-c2cnn3cc(Cl)cnc23)ncc1C(=O)NC[C@@H](F)C(C)(C)O [Example 158, 6-(6-chloropyrazolo[1,5-a]pyrimidin-3-yl)-N—((R)-2-fluoro-3-hydroxy-3-methylbutyl)-4-(((S)-2-fluorobutyl)amino)nicotinamide]
19 | 0.006 µM | 19.1 ×10⁻⁶ cm/s | 0.76 µM |  | CC(C)(O)[C@H](F)CNC(=O)c1cnc(-c2cnn3cc(Cl)cnc23)cc1NCC(F)F [Example 163, (R)-6-(6-chloropyrazolo[1,5-a]pyrimidin-3-yl)-4-((2,2-difluoroethyl)amino)-N-(2-fluoro-3-hydroxy-3-methylbutyl) nicotinamide]
